The text below walks through data of patent publication US11420961B2, “Heterocyclic compounds” (Hoffmann-La Roche Inc., priority 2017, dated 2022).

As a reminder, the IC50 is the point on the concentration scale where inhibition reaches its midpoint.

SMILES strings stand for the structures.

The target in the experiment is T1, MAGL (recombinant wild-type) (Homo sapiens, UniProt Q99685).
T1 sequence (Q99685 1-303): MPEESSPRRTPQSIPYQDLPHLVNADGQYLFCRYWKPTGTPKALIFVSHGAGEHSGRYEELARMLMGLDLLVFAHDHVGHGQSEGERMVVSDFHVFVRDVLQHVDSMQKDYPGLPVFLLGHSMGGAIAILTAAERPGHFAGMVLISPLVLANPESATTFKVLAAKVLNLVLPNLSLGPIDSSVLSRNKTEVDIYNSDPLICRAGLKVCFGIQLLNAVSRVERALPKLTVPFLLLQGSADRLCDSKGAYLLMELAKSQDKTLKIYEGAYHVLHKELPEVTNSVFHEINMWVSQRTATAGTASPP
Briefly: 4-NPA assay: MAGL inhibitory activity by hydrolysis of 4-nitrophenylacetate, absorbance at 405 nm. Format: biochemical. Particulars: 4-NPA assay (values without footnote [a]). On the procedure: Compounds were profiled for MAGL inhibitory activity by measuring the enzymatic activity of MAGL by following the hydrolysis of 4-nitorphenylacetate resulting in 4-nitrophenol, which absorbs at 405-412 nm (G. G. Muccioli, G. Labar, D M. Lambert, Chem. Bio. Chem. 2008, 9, 2704-2710). This assay is hereinafter abbreviated “4-NPA assay”.
The 4-NPA assay was carried out in 384 well assay plates (black with clear bottom, non-binding surface treated, Corning Ref. 3655) in a total volume of 40 μL. Compound dilutions were made in 100% DMSO (VWR Chemicals 23500.297) in a polypropylene plate in 3-fold dilution steps to give a final concentration range in the assay from 25 μM to 1.7 nM. 1 μL compound dilutions (100% DMSO) were added to 19 μL MAGL (recombinant wild-type) in assay buffer (50 mM TRIS (GIBCO, 15567-027), 1 mM EDTA (Fluka, 03690-100 ml)). The plate was shaked for 1 min at 2000 rpm (Variomag Teleshake) and then incubated for 15 min at RT. To start the reaction, 20 μL 4-Nitrophenlyacetate (Sigma N-8130) in assay buffer with 6% EtOH was added. The final concentrations in the assay were 1 nM MAGL and 300 μM 4-Nitrophenylacetate. After shaking (1 min, 2000 rpm) and 5 min incubation at RT, the absorbance at 405 nm was measured for a first time (Molecular Devices, SpectraMax Paradigm). A second measurement was then done after incubation for 80 min at RT. From the two measurements, the slope was calculated by substracting the first from the second measurement.
Consider `COc1ccc([C@H](c2ccccc2)C2CCN(C(=O)c3ccc4c(c3)NC(=O)CO4)CC2)cc1` (single isomer, unassigned) [Example 10], for which the IC50 was found to be 1.9 nM. Consider `O=C1COc2ccc(C(=O)N3CCC(c4cn(Cc5cccc(Cl)c5)c5ccccc45)CC3)cc2N1` [Example 35, 6-[4-[l-[(3-chlorophenyl)methyl]indol-3-yl]piperidine-1-carbonyl]-4H-1,4-benzoxazin-3-one], for which the IC50 is 37 nM. For the compound `O=C1COc2ccc(C(=O)N3CCC(c4cn(C5CC5)c5cc(Cl)ccc45)CC3)cc2N1` [Example 34, 6-[4-(6-chloro-1-cyclopropylindol-3-yl)piperidine-1-carbonyl]-4H-1,4-benzoxazin-3-one], the IC50 is 36 nM. With `CC(C)n1nc(C2CCN(C(=O)c3ccc4c(c3)NC(=O)CO4)CC2)c2ccc(F)cc21` [Example 38, 6-[4-(6-fluoro-1-propan-2-ylindazol-3-yl)piperidine-1-carbonyl]-4H-1,4-benzoxazin-3-one] the figure was 86 nM. With `O=C1COc2ccc(C(=O)N3CCC(c4nn(CCO)c5cc(F)ccc45)CC3)cc2N1` [Example 37, 6-[4-[6-fluoro-1-(2-hydroxyethyl)indazol-3-yl]piperidine-1-carbonyl]-4H-1,4-benzoxazin-3-one], the IC50 was found to be 350 nM.

With `O=C1COc2ccc(C(=O)N3CCC(c4n[nH]c5ccccc45)CC3)cc2N1` [Example 36, 6-[4-(1H-indazol-3-yl)piperidine-1-carbonyl]-4H-1,4-benzoxazin-3-one], the IC50 was determined as 158 nM. Turning to `O=C1COc2ccc(C(=O)N3CCC(C(c4ccc(F)cc4)c4ccc(F)nc4)CC3)cc2N1` (single isomer, unassigned) [Example 115, 6-[4-[(R or S)-(4-Fluorophenyl)-(6-fluoro-3-pyridyl)methyl]piperidine-1-carbonyl]-4H-1,4-benzoxazin-3-one], the IC50 came to 1.4 nM. Consider `O=C1COc2ccc(C(=O)N3CCC(c4csc5ccccc45)CC3)cc2N1` [Example 42, 6-[4-(1-benzothiophen-3-yl)piperidine-1-carbonyl]-4H-1,4-benzoxazin-3-one], for which the IC50 was 97 nM. With `Cn1cc(C2CCN(C(=O)c3cc4c(cc3F)OCC(=O)N4)CC2)c2cc(Cl)ccc21` [Example 28, 6-[4-(5-chloro-1-methylindol-3-yl)piperidine-1-carbonyl]-7-fluoro-4H-1,4-benzoxazin-3-one], the IC50 came to 1 nM. Turning to `Cc1cccc([C@H](c2ccccc2)C2CCN(C(=O)c3ccc4c(c3)NC(=O)CO4)CC2)c1` (single isomer, unassigned) [Example 16], the IC50 came to 0.5 nM. Take `O=C1CCc2c(cc(C(=O)N3CCC(C(c4ccc(F)cc4)c4ccc(F)cc4)CC3)cc2OCCF)N1` [Example 106, 7-[4-[Bis(4-fluorophenyl)methyl]piperidine-1-carbonyl]-5-(2-fluoroethoxy)-3,4-dihydro-1H-quinolin-2-one]: the IC50 came out at 7.9 nM. With `Cc1ccc([C@H](c2ccccc2)C2CCN(C(=O)c3ccc4c(c3)NC(=O)CO4)CC2)cc1` (single isomer, unassigned) [Example 14], the IC50 was determined as 0.5 nM.

With `O=C1COc2ccc(C(=O)N3CCN(c4ccc(Cl)c(C(F)(F)F)c4)CC3)cc2N1` [Example 85, 6-[4-[4-chloro-3-(trifluoromethyl)phenyl]piperazine-1-carbonyl]-4H-1,4-benzoxazin-3-one], the IC50 amounted to 497 nM.

On to `Cc1cccc([C@@H](c2ccccc2)C2CCN(C(=O)c3ccc4c(c3)NC(=O)CO4)CC2)c1` (single isomer, unassigned) [Example 17], for which the IC50 came to 0.2 nM.

Regarding `O=C1COc2ccc(C(=O)N3CCC(c4c[nH]c5cc(F)ccc45)CC3)cc2N1` [Example 23, 6-[4-(6-fluoro-1H-indol-3-yl)piperidine-1-carbonyl]-4H-1,4-benzoxazin-3-one], the IC50 was 10.6 nM. Regarding `O=C1COc2ccc(C(=O)N3CCC(c4cccc(Cl)c4)C3)cc2N1` (stereo not shown) [Example 56, 6-[3-(3-chlorophenyl)pyrrolidine-1-carbonyl]-4H-1,4-benzoxazin-3-one], the IC50 is 1400 nM.
